We go through 8 compounds from patent US20110172416A1, “AMIDINE DERIVATIVE” (Ajinomoto Co., Inc., priority 2008, published 2011).

The target in one data set is FXa (Homo sapiens, UniProt P00742). Description: Measurement of activated factor X activity-inhibitory activity (chromogenic substrate S-2222). It is filed as biochemical. Conditions: negative logarithmic value of concentration suppressing reaction rate of control to 50%. Here is the method: (§1) Using a 96 well plate (#3396, Costar), Tris-HCl buffer (100 mM, 130 μL) containing 0.02% Tween 20, 0.1% PEG6000 and 0.2 M NaCl was blended with FXa (0.015 U/ml, 10 μL) and a test compound (10 μL) for 10 min, and a chromogenic substrate (0.2 mM, S-2222, 50 μL) was added. Using microplate reader Benchmark Plus (BIO-RAD), the reaction rate was measured from the time course changes in the absorbance at 405 nm. The reaction rate of the control was taken as 100%, and a negative logarithmic value of a concentration at which the reaction rate of the control could be suppressed to 50% was taken as the pIC50 value. The results are shown by pIC50 (FXa) in Table 2.

Data set [1] has as its target activated factor IIa (thrombin) (Homo sapiens, UniProt P00734). Description: Measurement of activated factor II (FIIa, thrombin)-inhibitory activity (chromogenic substrate S-2238). It is filed as biochemical. As to conditions: negative logarithmic value of concentration suppressing reaction rate of control to 50%. Here is the method: as §1, with “activated factor IIa (thrombin, 0.125 U/mL,” for “FXa (0.015 U/ml,”, “(0.1” for “(0.2”, “S-2238,” for “S-2222,”, “of” for “in the”, “(IIa)” for “(FXa)”

The next data set deals with human plasma. The experiment in a line: Measurement of anti-blood coagulant activity (aPTT measurement method). The class given is biochemical. Conditions: negative logarithmic value of concentration at which aPTT of the control was double-extended. Here is the method: The test was performed according to an aPTT measurement method using a fully-automated blood coagulation time measuring apparatus Sysmex CA-1500. In a sample tube (MS-18, Japan Medical Science) were placed DDVP solution (10 mg/ml, DDVP standard product, Wako Corporation, 4 μL), a solution (20 μL) of a test compound, and human plasma (human plasma for blood coagulation test, GCH-100A, Sysmex Corporation, 180 μL) and this was used as a test sample. The test sample (50 μL) was incubated at 37° C. for 1 min, APTT (cephalin derived from rabbit brain, DADE Behiring, 50 μL) was added, and the mixture was further incubated at 37° C. for 2 min. To the sample solution was added calcium chloride (0.02 M, 50 μL), and the time before coagulation of the plasma was automatically measured.
The anti-blood coagulation activity was shown by the negative logarithmic value of a concentration at which aPTT of the control was double-extended as paPTT2.

The nature of data set [2]: Evaluation of stability in plasma. As to conditions: human plasma, 37° C., calculated from quantitative lower limit at 2 min when below quantification limit. The class given is in vitro ADME. On the procedure:
To human plasma (495 μL) was added a solution (5 μL) of the test compound prepared to 100 μg/mL (final drug solution concentration 1 μg/mL), and the mixture was incubated at 37° C. At 0 min, 2 min, 5 min, 10 min, 30 min and 60 min after the addition of the drug solution, 50 μL each was sampled. Acetonitrile (100 μL) was added and the mixture was admixed to discontinue the reaction. After discontinuation of the reaction, a protein elimination treatment was performed by centrifugation (15000 rpm, 5 min). The centrifugation supernatant (20 μL) was diluted with ammonium formate solution (100 mmol/L, pH 4, 180 μL), and subjected to the measurement by LC/MS/MS.
When the value at 2 min after the addition of the drug solution was less than the quantification limit, the half-life was calculated by the following method.
That is, the value at 0 min was taken as the theoretical concentration (1000 ng/mL) and the value at 2 min was taken as the quantitative lower limit concentration. The half-life (T1/2) was calculated from the inclination of the straight line connecting the logarithmic conversion values at the two points.

pIC50: −log10 of the molar value. Some results are limits rather than exact numbers.

Chain of FXa (P00742 235-488 limits assumed): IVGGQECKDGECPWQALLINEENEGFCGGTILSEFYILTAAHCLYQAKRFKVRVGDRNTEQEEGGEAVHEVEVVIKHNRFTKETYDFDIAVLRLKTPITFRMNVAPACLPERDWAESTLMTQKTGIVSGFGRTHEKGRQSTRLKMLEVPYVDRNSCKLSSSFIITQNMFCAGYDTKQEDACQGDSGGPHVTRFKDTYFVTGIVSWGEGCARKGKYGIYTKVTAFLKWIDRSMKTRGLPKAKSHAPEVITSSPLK
Chain of FXa (P00742 41-179 partner limits assumed): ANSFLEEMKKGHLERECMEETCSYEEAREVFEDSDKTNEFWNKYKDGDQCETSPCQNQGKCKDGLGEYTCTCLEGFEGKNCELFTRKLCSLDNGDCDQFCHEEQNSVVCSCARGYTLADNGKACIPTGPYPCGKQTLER

One may read the pIC50 as −log10 of the IC50, conventionally taken in molar units. Read a high pIC50 as a small IC50. What is called half-life is the time needed for the level to fall by half in the phase considered. As to `N=C(N)N1CCc2ccc(C(=O)OCC3CCN(c4ccncc4)CC3)cc2C1` [compound of Ex. 2, [1-(pyridin-4-yl)piperidin-4-yl]methyl 2-[amino(imino)methyl]-1,2,3,4-tetrahydroisoquinoline-7-carboxylate ditrifluoroacetate], the pIC50 against FXa is 6.40; in data set [1], less than 4.00. The compound further came in with a paPTT2 in the data set with human plasma of 5.4. Moreover, the half-life at 1 μg/mL in data set [2] is less than 23.7 s.
On the same counts, the results for `N=C(N)N1CCc2ccc(COC(=O)C3CCN(c4ccncc4)CC3)cc2C1` [compound of Ex. 3, {2-[amino(imino)methyl]-1,2,3,4-tetrahydroisoquinolin-7-yl}methyl 1-(pyridin-4-yl)piperidine-4-carboxylate ditrifluoroacetate] are 7.10, 4.20, 6.1 and less than 23.9 s.
With `N=C(N)N1CCc2ccc(OC(=O)C3(COCc4ccccc4)CCN(c4ccncc4)CC3)cc2C1` [compound of Ex. 5, 2-[amino(imino)methyl]-1,2,3,4-tetrahydroisoquinolin-7-yl 4-[(benzyloxy)methyl]-1-(pyridin-4-yl)piperidine-4-carboxylate ditrifluoroacetate], the negative-log IC50 (pIC50) at FXa is 6.30; in data set [1] it was 4.70. The compound also came in with a paPTT2 in the data set with human plasma of 5.4.
On the same counts, the results for `COCC1(C(=O)Oc2ccc3c(c2)CN(C(=N)N)CC3)CCN(c2ccncc2)CC1` [compound of Ex. 6, 2-[amino(imino)methyl]-1,2,3,4-tetrahydroisoquinolin-7-yl 4-methoxymethyl-1-(pyridin-4-yl)piperidine-4-carboxylate ditrifluoroacetate] are 5.80, 4.40 and 5.4.
On the same counts, the results for `N=C(N)N1Cc2ccc(C(=O)OCC3CCN(c4ccncc4)CC3)cc2C1` [compound of Ex. 7, [1-(pyridin-4-yl)piperidin-4-yl]methyl 2-[amino(imino)methyl]isoindoline-5-carboxylate ditrifluoroacetate] are 5.10, less than 4.00 and 4.6.
On to `N=C(N)N1Cc2ccc(COC(=O)C3CCN(c4ccncc4)CC3)cc2C1` [compound of Ex. 8, {2-[amino(imino)methyl]-isoindolin-5-yl}methyl 1-(pyridin-4-yl)piperidine-4-carboxylate ditrifluoroacetate], for which the pIC50 was 5.50 on FXa and less than 4.00 in data set [1]. In the data set with human plasma, this compound showed a paPTT2 of less than 5.
With `CC(=N)N1CCC(Oc2ccc(COC(=O)c3ccc4c(c3)CN(C(=N)N)CC4)cc2)CC1` [compound of Ex. 15, 4-{[1-(1-iminoethyl)piperidin-4-yl]oxy}benzyl 2-[amino(imino)methyl]-1,2,3,4-tetrahydroisoquinoline-7-carboxylate ditrifluoroacetate], the pIC50 on FXa was 5.00; in data set [1], less than 4.00. In the data set with human plasma, this compound returned a paPTT2 of 4.4.
With `CC(=N)N1CCC(Oc2ccc(C(=O)OCc3ccc4c(c3)CN(C(=N)N)CC4)cc2)CC1` [compound of Ex. 16, {2-[amino(imino)methyl]-1,2,3,4-tetrahydroisoquinolin-7-yl}methyl 4-{([1-(1-iminoethyl)piperidin-4-yl]oxy}benzoate ditrifluoroacetate], the results for the pIC50 (against FXa; in data set [1]) were 5.30 and less than 4.00, respectively. The same compound gave a paPTT2 in the data set on human plasma of 4.5.
